{"source": "paper PMC7467712", "about": "“Physical Mechanisms Governing Substituent Effects on Arene–Arene Interactions in a Protein Milieu” (The Journal of Physical Chemistry. B, 2020)", "origin": "cited, not measured here", "data": [{"system": "Mus musculus AChE", "parameters": "method as in PMID 23984975", "settings": "95% confidence interval within parentheses, at least four replicates", "units": {"IC50": "µM"}, "values": [{"smiles": "CCN(CC)CCNS(=O)(=O)Cc1ccc(Cl)cc1", "note": "[AL011]", "IC50": 12}, {"smiles": "CCN(CC)CCNS(=O)(=O)Cc1ccccc1", "note": "[AL029]", "IC50": 139}, {"smiles": "CCN(CC)CCNS(=O)(=O)Cc1ccc(F)cc1", "note": "[AL036]", "IC50": 40}, {"smiles": "CCN(CC)CCNS(=O)(=O)Cc1ccc(C(F)(F)F)cc1", "note": "[AL037]", "IC50": 12}, {"smiles": "CCN(CC)CCNS(=O)(=O)c1cccc(C(F)(F)F)c1", "note": "[AL040]", "IC50": 22}, {"smiles": "CCN(CC)CCNS(=O)(=O)c1cccc(OC)c1", "note": "[AL041]", "IC50": 7}]}]}
